The values that follow come from patent US20210255193A1, “LYSINE REACTIVE PROBES AND USES THEREOF” (The Scripps Research Institute, priority 2017, published 2021).

For one test, the target named is T1, PNPO (Homo sapiens, UniProt Q9NVS9).
T1 construct: Flag; expressed in transfected cells; host or cells: HEK 293T, transient transfection, soluble lysate
T1 sequence (Q9NVS9 1-261): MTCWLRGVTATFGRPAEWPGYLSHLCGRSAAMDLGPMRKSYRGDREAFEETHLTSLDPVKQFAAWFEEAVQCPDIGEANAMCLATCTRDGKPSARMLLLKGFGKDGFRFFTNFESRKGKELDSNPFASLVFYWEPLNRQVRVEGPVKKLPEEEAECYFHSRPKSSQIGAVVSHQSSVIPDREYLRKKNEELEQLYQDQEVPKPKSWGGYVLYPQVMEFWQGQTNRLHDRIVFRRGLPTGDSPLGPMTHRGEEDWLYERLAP
The experiment in a line: competitive gel-based ABPP, apparent IC50. The class given is binding. To be noted: read-out: apparent IC50, blockade of probe labeling of K100 in PNPO. As to the method: (§1) Recombinant expression of proteins by transient transfection. HEK 293T cells were grown to 50% confluency in 10 ml DMEM supplemented with 10% fetal bovine serum (FBS), penicillin, streptomycin and glutamine in 10 cm tissue culture dishes. 3 μg of DNA was diluted in 500 μL DMEM and 30 μL of PEI (MW 40,000, 1 mg ml^−1, Polysciences) were added. The mixture was incubated at room temperature for 30 min and added dropwise to the cells. Cells were grown for 48 h at 37° C. with 5% CO2. Cells were washed with cold PBS, scraped with cold PBS and cell pellets were isolated by centrifugation (1,400 g, 3 min, 4° C.), and stored at −80° C. until use. Cell pellets were resuspended in PBS, lysed by sonication and fractionated (100,000 g, 45 min) to yield soluble and membrane fractions. The soluble fraction was adjusted to a final protein concentration of 1 mg ml^−1 for gel-based ABPP experiments.
(§2) Competitive gel-based ABPP and apparent IC50 values. 50 μl of soluble proteome (1 mg ml^−1) expressing the indicated protein were treated with fragment electrophiles (1 μl of 50× stock solution in DMSO) at ambient temperature for 1 h. The indicated probe (fluorophore or alkyne-containing, 1 μl of a 500 μM solution, final concentration=10 μM) was then added and allowed to react for an additional 1 h. CuAAC and in-gel fluorescence analysis were performed as described above. For quantification of inhibition and apparent IC50 determination, the percentage of labeling was determined by quantifying the integrated optical intensity of the bands using ImageLab 5.2.1 software (BioRad). Nonlinear regression analysis was used to determine the IC50 values from a dose-response curve generated using GraphPad Prism 7.

The target in test [1] is T2, PFKP (Homo sapiens, UniProt Q01813).
T2 construct: Flag; expressed in transfected cells; host or cells: HEK 293T, transient transfection, soluble lysate; cDNA clone 5180268 (Dharmacon)
T2 sequence (Q01813 1-784): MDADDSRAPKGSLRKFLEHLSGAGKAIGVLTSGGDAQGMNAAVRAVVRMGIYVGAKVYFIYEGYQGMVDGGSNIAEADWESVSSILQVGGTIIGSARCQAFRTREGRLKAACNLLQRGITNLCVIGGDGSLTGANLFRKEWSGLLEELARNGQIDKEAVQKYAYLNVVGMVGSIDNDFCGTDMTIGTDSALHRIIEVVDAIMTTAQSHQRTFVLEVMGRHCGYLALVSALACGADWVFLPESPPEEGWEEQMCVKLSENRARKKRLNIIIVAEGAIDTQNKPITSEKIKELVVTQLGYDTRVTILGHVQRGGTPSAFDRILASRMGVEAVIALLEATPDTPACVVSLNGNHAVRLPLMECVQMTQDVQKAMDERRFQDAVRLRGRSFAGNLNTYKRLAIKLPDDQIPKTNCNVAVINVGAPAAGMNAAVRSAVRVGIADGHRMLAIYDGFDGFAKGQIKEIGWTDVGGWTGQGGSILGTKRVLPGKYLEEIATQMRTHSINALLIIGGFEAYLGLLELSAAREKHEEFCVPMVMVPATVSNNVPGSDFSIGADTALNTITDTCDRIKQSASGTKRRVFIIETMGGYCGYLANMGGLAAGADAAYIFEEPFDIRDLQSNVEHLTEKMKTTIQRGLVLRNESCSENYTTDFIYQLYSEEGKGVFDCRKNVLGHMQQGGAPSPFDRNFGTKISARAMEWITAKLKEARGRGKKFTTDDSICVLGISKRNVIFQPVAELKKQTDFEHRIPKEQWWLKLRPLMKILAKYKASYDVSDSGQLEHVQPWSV
As to the kind of experiment: competitive gel-based ABPP, apparent IC50. To be noted: read-out: apparent IC50, blockade of probe labeling of recombinant PFKP. The class given is binding. The method, then:
as §1, §2

Test [2] deals with T2, PFKP. The experiment in a line: PFKP functional assay. The class given is biochemical. The settings on record: WT-PFKP. The method, then: (§3) PFKP functional assay. For inhibitor experiments, 50 μl of soluble proteome (initial total protein concentration: 1 mg ml^−1) from HEK 293T cells expressing PFKP (WT or K688R mutant) or mock transfected cells (empty vector; negative control) were incubated with 1 μl 50× of the compound in DMSO or DMSO for the positive or negative control for 1 h at room temperature. Lysates were diluted 40× with dilution buffer (PBS containing 0.2 mg ml^−1 BSA and 5 mM MgCl2) and 40 μl were added into a clear bottom 384 well plate. 10 μl of a mixture of 3.5 μl PBS, 2.5 μl fructose-6-phosphate (100 mM), 1 μl NADH (20 mM), 1 μl ATP (50 mM), 1 μl aldolase (50 U ml^−1) and 1 μl GDH/TPI (500 U ml^−1 TPI, 50 U ml^−1 GDH) were added to start the reaction. The absorbance of NADH was measured at 340 nm every minute for 30 min.
(§4) Calculation of relative activity or percent inhibition. For PNPO, PFKP, NUDT2 and G6PD, the slope of the linear regression of the linear portion of the absorbance or fluorescence over time was used as measure their activity. Apparent activity was calculated relative to the WT. Percent inhibition was calculated relative to the positive and negative control and used to calculate IC50 values by nonlinear regression analysis from a dose-response curve generated using GraphPad Prism 7.

For test [3], the target named is T3, PFKP (Homo sapiens, UniProt Q01813, K688R).
T3 construct: Flag; expressed in transfected cells; host or cells: HEK 293T, transient transfection, soluble lysate; cDNA clone 5180268 (Dharmacon)
T3 sequence (Q01813 whole entry K688R): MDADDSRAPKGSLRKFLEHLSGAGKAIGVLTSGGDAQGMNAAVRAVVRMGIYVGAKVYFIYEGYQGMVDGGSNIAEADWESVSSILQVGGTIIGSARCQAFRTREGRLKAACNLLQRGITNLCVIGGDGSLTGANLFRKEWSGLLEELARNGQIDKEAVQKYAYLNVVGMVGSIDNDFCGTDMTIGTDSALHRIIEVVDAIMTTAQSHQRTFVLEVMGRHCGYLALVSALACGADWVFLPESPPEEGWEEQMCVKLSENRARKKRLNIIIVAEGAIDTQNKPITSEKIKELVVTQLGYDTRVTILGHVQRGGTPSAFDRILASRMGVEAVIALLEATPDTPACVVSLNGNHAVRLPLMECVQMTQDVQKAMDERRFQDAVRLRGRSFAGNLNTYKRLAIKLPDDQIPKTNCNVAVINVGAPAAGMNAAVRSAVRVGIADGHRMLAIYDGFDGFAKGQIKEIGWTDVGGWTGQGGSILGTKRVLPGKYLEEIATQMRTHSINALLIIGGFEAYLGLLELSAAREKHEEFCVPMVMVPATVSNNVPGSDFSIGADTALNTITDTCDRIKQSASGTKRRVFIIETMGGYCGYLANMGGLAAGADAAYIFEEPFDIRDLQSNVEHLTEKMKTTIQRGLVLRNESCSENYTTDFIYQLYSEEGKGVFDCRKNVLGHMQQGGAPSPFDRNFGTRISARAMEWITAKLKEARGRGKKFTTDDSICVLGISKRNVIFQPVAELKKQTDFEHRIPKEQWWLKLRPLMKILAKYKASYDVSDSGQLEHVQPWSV
The experiment in a line: PFKP functional assay. To be noted: K688R mutant. Format: biochemical. The method, then:
as §3, §4

The target of test [4] is T4, Flag-tagged SIN3A (a.a. 1-400) (Homo sapiens, UniProt Q96ST3).
T4 construct: expressed in transfected cells; host or cells: HEK 293T, transient transfection, lysate
T4 sequence (Q96ST3 1-400): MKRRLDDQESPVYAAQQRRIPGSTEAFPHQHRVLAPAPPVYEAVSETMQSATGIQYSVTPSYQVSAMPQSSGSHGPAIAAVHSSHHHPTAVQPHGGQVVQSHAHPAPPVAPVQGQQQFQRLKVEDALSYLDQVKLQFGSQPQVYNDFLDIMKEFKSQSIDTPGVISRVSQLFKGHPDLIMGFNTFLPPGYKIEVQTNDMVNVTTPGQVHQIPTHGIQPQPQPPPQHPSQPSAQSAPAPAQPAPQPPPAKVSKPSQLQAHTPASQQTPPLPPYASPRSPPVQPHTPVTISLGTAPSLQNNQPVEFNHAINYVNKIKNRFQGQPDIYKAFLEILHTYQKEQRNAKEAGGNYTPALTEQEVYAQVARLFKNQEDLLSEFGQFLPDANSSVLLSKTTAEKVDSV
The experiment in a line: competitive gel-based ABPP, apparent IC50. Format: binding. The settings on record: probe 17, HEK293T cell lysates. As to the method: as §1, §2

For another test, the target named is T5, NUDT2 (Homo sapiens, UniProt P50583).
T5 construct: expressed in transfected cells; host or cells: HEK 293T, transient transfection, soluble lysate; synthesized gene (IDT)
T5 sequence (P50583 whole entry): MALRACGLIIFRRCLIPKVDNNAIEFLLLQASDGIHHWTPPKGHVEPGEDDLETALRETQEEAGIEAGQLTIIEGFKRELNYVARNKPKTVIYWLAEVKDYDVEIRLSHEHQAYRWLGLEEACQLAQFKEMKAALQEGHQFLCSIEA
The experiment in a line: competitive gel-based ABPP, apparent IC50. The class given is binding. The method, then:
as §1, §2

SMILES strings stand for the structures. Entries after “also recorded” stand apart in the source; their conditions may differ.

A word on the IC50: it is the concentration needed to halve the response being measured. In the case of `O=C(CCc1cn(-c2ccccc2)nc1-c1ccccc1)Oc1c(F)c(F)c(F)c(F)c1F` [fragment 19, Pentafluorophenyl 3-(1,3-diphenyl-1H-pyrazol-4-yl)propanoate], the IC50 at PNPO turned out to be 3000 nM.
Take `O=C(Oc1c(F)c(F)c(F)c(F)c1F)C(c1ccccc1)c1ccccc1` [fragment 20, Pentafluorophenyl 2,2-diphenylacetate]: the IC50 on PFKP [1] is 2000 nM; on PFKP [2] (enzyme-coupled assay, read-out: apparent IC50, inhibition of PFKP activity) it was 2900 nM. Also, the “maximal inhibitory effect, reduction in substrate turnover” value at PFKP [2] (plateau) is reported as “about 80%”. For the same compound, the “inhibition of K688R-PFKP mutant activity” value against PFKP [3] is reported as “not the K688R-PFKP mutant”.
For the compound `O=C(Oc1c(F)c(F)c(F)c(F)c1F)c1cc(C(F)(F)F)cc(C(F)(F)F)c1` [fragment 21, Pentafluorophenyl 3,5-bis(trifluoromethyl)benzoate], the “blockade of probe labeling of K155” value in test [4] was “site-specific and complete blockade of probe labeling of K155; also recorded: blocks probe 17 labeling of SIN3A at K155 in a concentration-dependent manner”. Further, in test [4] (read-out: apparent IC50, blockade of probe labeling of K155), the concentration for half-maximal inhibition (IC50) stood at 5000 nM.
Take `COC(=O)NC(=NC(=O)OCC1c2ccccc2-c2ccccc21)n1cccn1` [fragment 49, N-Methoxycarbonyl-N′-9-fluorenylmethoxycarbonyl-pyrazole-1-carboxamidine]: the “blockade of probe 1-labeling of K89 in NUDT2” value on NUDT2 (FIG. 11G) is “quantitatively blocked”. The half-inhibitory concentration (IC50) on NUDT2 (gel-based ABPP, read-out: apparent IC50, blockade of probe labeling of NUDT2) came out at 2000 nM.
